# Assay results taken from PubChem BioAssay (NCI).
#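 Exposure lasted 48 hours, with cells grown in 96-well plates and compounds tested at five concentrations. TGI: total growth inhibition.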
# Tests used:
# Assay in all cases: DTP human tumour cell line panel, 48 h
# [1] = tested on: NCI-H23 lung
# [2] = tested on: HT29 colon
# [3] = tested on: MCF7 breast
# [4] = tested on: SN12C renal
# [5] = tested on: MDA-MB-435
# [6] = tested on: A498 renal
# [7] = tested on: SR leukemia
# [8] = tested on: MDA-N
# [9] = tested on: TK-10 renal
# [10] = tested on: T-47D breast
# [11] = tested on: SK-OV-3 ovarian
# [12] = tested on: KM12 colon
# [13] = tested on: COLO 205 colon
# [14] = tested on: HCC-2998 colon
# [15] = tested on: CCRF-CEM leukemia
# [16] = tested on: SF-295 CNS
# [17] = tested on: OVCAR-4 ovarian
# [18] = tested on: UO-31 renal
# [19] = tested on: SNB-75 CNS
# [20] = tested on: U251 CNS
# [21] = tested on: NCI-H460 lung
# [22] = tested on: PC-3 prostate
# [23] = tested on: OVCAR-8 ovarian
# [24] = tested on: BT-549 breast
# [25] = tested on: 786-0 renal
# [26] = tested on: MALME-3M melanoma
# [27] = tested on: RPMI-8226 leukemia
# [28] = tested on: NCI-H226 lung
# [29] = tested on: SF-268 CNS
# [30] = tested on: EKVX NSCLC
# [31] = tested on: UACC-257 melanoma
# [32] = tested on: LOX IMVI melanoma
# [33] = tested on: IGROV1 ovarian
# [34] = tested on: HOP-92 NSCLC
# [35] = tested on: M14 melanoma
# [36] = tested on: NCI/ADR-RES ovarian
# [37] = tested on: DU-145 prostate
# [38] = tested on: RXF 393 renal
# [39] = tested on: HS 578T breast
# [40] = tested on: SF-539 CNS
# [41] = tested on: OVCAR-5 ovarian
# [42] = tested on: K-562 leukemia
# [43] = tested on: HOP-62 NSCLC
# [44] = tested on: A549 NSCLC
# [45] = tested on: HL-60(TB) leukemia
# [46] = tested on: HCT-15 colon
# [47] = tested on: HCT-116 colon
# [48] = tested on: ACHN renal
# [49] = tested on: UACC-62 melanoma
# [50] = tested on: CAKI-1 renal
# [51] = tested on: MOLT-4 leukemia
# [52] = tested on: SW-620 colon
# [53] = tested on: SK-MEL-28 melanoma
# [54] = tested on: SK-MEL-2 melanoma
# [55] = tested on: OVCAR-3 ovarian
# [56] = tested on: MDA-MB-231 breast
# [57] = tested on: NCI-H522 lung
# [58] = tested on: SNB-19 CNS
# [59] = tested on: SK-MEL-5 melanoma
compound,measurement,setting,value
O=C1C(N2CCOCC2)=C(Cl)C(=O)c2ncccc21,TGI,[1],3.55 µM
same,TGI,[2],> 10 µM
same,TGI,[3],3.59 µM
same,TGI,[4],3.15 µM
same,TGI,[5],3.22 µM
same,TGI,[6],> 10 µM
same,TGI,[7],2.2 µM
same,TGI,[8],3.48 µM
same,TGI,[9],4.71 µM
same,TGI,[10],3.92 µM
same,TGI,[11],> 10 µM
same,TGI,[12],> 5.35 µM
same,TGI,[13],3.91 µM
same,TGI,[14],> 9.5 µM
same,TGI,[15],2.16 µM
same,TGI,[16],> 10 µM
same,TGI,[17],2.89 µM
same,TGI,[18],> 5.86 µM
same,TGI,[19],> 10 µM
same,TGI,[20],> 10 µM
same,TGI,[21],> 10 µM
same,TGI,[22],> 10 µM
same,TGI,[23],> 5.73 µM
same,TGI,[24],> 10 µM
same,TGI,[25],3.24 µM
same,TGI,[26],3.45 µM
same,TGI,[27],4.34 µM
same,TGI,[28],> 10 µM
same,TGI,[29],> 7.37 µM
same,TGI,[30],> 10 µM
same,TGI,[31],3.52 µM
same,TGI,[32],4.92 µM
same,TGI,[33],> 10 µM
same,TGI,[34],2.84 µM
same,TGI,[35],4.97 µM
same,TGI,[36],> 10 µM
same,TGI,[37],> 10 µM
same,TGI,[38],2.91 µM
same,TGI,[39],> 10 µM
same,TGI,[40],> 10 µM
same,TGI,[41],> 10 µM
same,TGI,[42],5.03 µM
same,TGI,[43],> 10 µM
same,TGI,[44],> 10 µM
same,TGI,[45],0.534 µM
same,TGI,[46],4.11 µM
same,TGI,[47],3.1 µM
same,TGI,[48],3.49 µM
same,TGI,[49],5.51 µM
same,TGI,[50],> 10 µM
same,TGI,[51],3.19 µM
same,TGI,[52],3.72 µM
same,TGI,[53],4.67 µM
same,TGI,[54],3.77 µM
same,TGI,[55],3.39 µM
same,TGI,[56],5.24 µM
same,TGI,[57],2.85 µM
same,TGI,[58],> 10 µM
same,TGI,[59],3.26 µM
COc1cccc2c(=O)c3c(n(C)c12)OC(C(C)C)C3 (stereo unspecified),TGI,[1],> 100 µM
same,TGI,[2],> 100 µM
same,TGI,[3],> 100 µM
same,TGI,[4],> 100 µM
same,TGI,[5],> 100 µM
same,TGI,[6],> 100 µM
same,TGI,[7],> 100 µM
same,TGI,[8],> 100 µM
same,TGI,[9],> 100 µM
same,TGI,[10],> 100 µM
same,TGI,[11],> 100 µM
same,TGI,[12],> 100 µM
same,TGI,[13],> 100 µM
same,TGI,[14],> 100 µM
same,TGI,[15],> 100 µM
same,TGI,[16],> 100 µM
same,TGI,[17],89.2 µM
same,TGI,[18],> 100 µM
same,TGI,[19],> 100 µM
same,TGI,[20],> 100 µM
same,TGI,[21],> 100 µM
same,TGI,[22],> 100 µM
same,TGI,[23],> 100 µM
same,TGI,[24],> 100 µM
same,TGI,[25],> 100 µM
same,TGI,[26],> 100 µM
same,TGI,[27],> 100 µM
same,TGI,[28],> 100 µM
same,TGI,[29],> 100 µM
same,TGI,[30],> 100 µM
same,TGI,[31],> 100 µM
same,TGI,[32],> 100 µM
same,TGI,[33],> 100 µM
same,TGI,[34],> 100 µM
same,TGI,[35],> 100 µM
same,TGI,[36],> 100 µM
same,TGI,[37],> 100 µM
same,TGI,[38],> 100 µM
same,TGI,[39],> 100 µM
same,TGI,[40],> 100 µM
same,TGI,[41],> 100 µM
same,TGI,[42],86.2 µM
same,TGI,[43],> 100 µM
same,TGI,[44],> 100 µM
same,TGI,[45],> 100 µM
same,TGI,[46],> 100 µM
same,TGI,[47],> 100 µM
same,TGI,[48],> 100 µM
same,TGI,[49],> 100 µM
same,TGI,[50],> 100 µM
same,TGI,[51],> 100 µM
same,TGI,[52],> 100 µM
same,TGI,[53],> 100 µM
same,TGI,[54],> 100 µM
same,TGI,[55],> 100 µM
same,TGI,[56],> 100 µM
same,TGI,[57],> 100 µM
same,TGI,[58],> 100 µM
same,TGI,[59],> 100 µM
COc1ccc(-c2c(C#N)c(=O)nc(SC)n2C2OCC(OC(C)=O)C(OC(C)=O)C2OC(C)=O)cc1 (stereo unspecified),TGI,[1],> 100 µM
same,TGI,[2],> 100 µM
same,TGI,[3],> 100 µM
same,TGI,[4],> 100 µM
same,TGI,[5],> 100 µM
same,TGI,[6],> 100 µM
same,TGI,[7],53.3 µM
same,TGI,[8],> 100 µM
same,TGI,[9],> 100 µM
same,TGI,[10],> 100 µM
same,TGI,[11],> 100 µM
same,TGI,[12],> 100 µM
same,TGI,[13],> 100 µM
same,TGI,[14],> 100 µM
same,TGI,[15],> 100 µM
same,TGI,[16],> 100 µM
same,TGI,[17],> 100 µM
same,TGI,[18],> 100 µM
same,TGI,[19],> 100 µM
same,TGI,[20],> 100 µM
same,TGI,[21],> 100 µM
same,TGI,[22],> 100 µM
same,TGI,[23],> 100 µM
same,TGI,[24],> 100 µM
same,TGI,[25],> 100 µM
same,TGI,[26],> 100 µM
same,TGI,[27],> 100 µM
same,TGI,[28],> 100 µM
same,TGI,[29],> 100 µM
same,TGI,[30],> 100 µM
same,TGI,[31],> 100 µM
same,TGI,[32],> 100 µM
same,TGI,[33],> 100 µM
same,TGI,[34],> 100 µM
same,TGI,[35],> 100 µM
same,TGI,[36],> 100 µM
same,TGI,[37],> 100 µM
same,TGI,[38],> 100 µM
same,TGI,[39],> 100 µM
same,TGI,[40],> 100 µM
same,TGI,[41],> 100 µM
same,TGI,[42],> 100 µM
same,TGI,[43],> 100 µM
same,TGI,[44],> 100 µM
same,TGI,[45],> 100 µM
same,TGI,[46],> 100 µM
same,TGI,[47],> 100 µM
same,TGI,[48],> 100 µM
same,TGI,[49],> 100 µM
same,TGI,[50],> 100 µM
same,TGI,[51],> 100 µM
same,TGI,[52],> 100 µM
same,TGI,[53],> 100 µM
same,TGI,[54],> 100 µM
same,TGI,[55],> 100 µM
same,TGI,[56],> 100 µM
same,TGI,[57],> 100 µM
same,TGI,[58],> 100 µM
same,TGI,[59],> 100 µM
N#Cc1c(N2CCCC2)ncn(-c2ccccc2)c1=S,TGI,[1],> 100 µM
same,TGI,[2],> 100 µM
same,TGI,[3],> 100 µM
same,TGI,[4],> 100 µM
same,TGI,[5],> 100 µM
same,TGI,[6],> 100 µM
same,TGI,[7],> 100 µM
same,TGI,[8],> 100 µM
same,TGI,[9],> 100 µM
same,TGI,[10],> 100 µM
same,TGI,[11],> 100 µM
same,TGI,[12],> 100 µM
same,TGI,[13],> 100 µM
same,TGI,[14],> 100 µM
same,TGI,[15],> 100 µM
same,TGI,[16],> 100 µM
same,TGI,[17],> 100 µM
same,TGI,[18],> 100 µM
same,TGI,[19],> 100 µM
same,TGI,[20],> 100 µM
same,TGI,[21],> 100 µM
same,TGI,[22],> 100 µM
same,TGI,[23],> 100 µM
same,TGI,[24],> 100 µM
same,TGI,[25],> 100 µM
same,TGI,[26],> 100 µM
same,TGI,[27],> 100 µM
same,TGI,[28],> 100 µM
same,TGI,[29],> 100 µM
same,TGI,[30],> 100 µM
same,TGI,[31],> 100 µM
same,TGI,[32],> 100 µM
same,TGI,[33],> 100 µM
same,TGI,[34],> 100 µM
same,TGI,[35],> 100 µM
same,TGI,[36],> 100 µM
same,TGI,[37],> 100 µM
same,TGI,[38],> 100 µM
same,TGI,[39],> 100 µM
same,TGI,[40],> 100 µM
same,TGI,[41],> 100 µM
same,TGI,[42],> 100 µM
same,TGI,[43],> 100 µM
same,TGI,[44],> 100 µM
same,TGI,[45],> 100 µM
same,TGI,[46],> 100 µM
same,TGI,[47],> 100 µM
same,TGI,[48],> 100 µM
same,TGI,[49],69.3 µM
same,TGI,[50],> 100 µM
same,TGI,[51],> 100 µM
same,TGI,[52],> 100 µM
same,TGI,[53],> 100 µM
same,TGI,[54],> 100 µM
same,TGI,[55],> 100 µM
same,TGI,[56],> 100 µM
same,TGI,[57],> 100 µM
same,TGI,[58],> 100 µM
same,TGI,[59],> 100 µM
